Experimental data taken from ChEMBL document CHEMBL2429807, “Synthesis and cytotoxicity of novel 4-(4-(substituted)-1H-1,2,3-triazol-1-yl)-N-phenethylbenzenesulfonamides” (Med Chem Res, 2013).
pIC50: −log10 of the molar value.

Assays:
Type in all cases: functional, cell-based
MOLT-3 = assay: Cytotoxicity against human MOLT3 cells after 48 hrs by XTT assay; conditions: MOLT-3, 48 h
A549 = assay: Cytotoxicity against human A549 cells after 48 hrs by MTT assay; conditions: A549, 48 h
HepG2 = assay: Cytotoxicity against human HepG2 cells after 48 hrs by MTT assay; conditions: HepG2, 48 h
[1] = Cytotoxicity against human HuCCa1 cells after 48 hrs by MTT assay; conditions: HuCC-A1, 48 h

Q: With `COC(=O)c1ccccc1OCc1cn(-c2ccc(S(=O)(=O)NCCc3ccccc3)cc2)nn1` as the compound, how does the pIC50 (MOLT-3) read?
A: Its pIC50 is 5.06.

Q: What about the IC50 (A549) of the same compound?
A: Its IC50 is greater than 50 µg/mL.

Q: And the pIC50 (HepG2)?
A: Its pIC50 is 4.31.

Q: And the IC50 [1]?
A: The IC50 was greater than 50 µg/mL.

Q: With `COc1ccc(C=O)cc1OCc1cn(-c2ccc(S(=O)(=O)NCCc3ccccc3)cc2)nn1` as the compound, how does the pIC50 (MOLT-3) read?
A: Its pIC50 is 4.99.

Q: What about the pIC50 (A549) of the same compound?
A: Its pIC50 is 4.41.

Q: And the pIC50 (HepG2)?
A: Its pIC50 is 4.46.

Q: What about the IC50 [1] of the same compound?
A: Its IC50 is greater than 50 µg/mL.

Q: With `O=S(=O)(NCCc1ccccc1)c1ccc(-n2cc(-c3ccccc3)nn2)cc1` as the compound, how does the IC50 (MOLT-3) read?
A: The IC50 was greater than 50 µg/mL.

Q: And the pIC50 (A549)?
A: Its pIC50 is 4.46.

Q: What about the pIC50 (HepG2) of the same compound?
A: The pIC50 was 5.04.

Q: What about the pIC50 [1] of the same compound?
A: The pIC50 was 5.06.

Q: With `O=c1cc(OCc2cn(-c3ccc(S(=O)(=O)NCCc4ccccc4)cc3)nn2)c2ccccc2o1` as the compound, how does the pIC50 (MOLT-3) read?
A: Its pIC50 is 4.97.

Q: And the IC50 (A549)?
A: The IC50 was greater than 50 µg/mL.

Q: And the IC50 (HepG2)?
A: Its IC50 is greater than 50 µg/mL.

Q: What about the IC50 [1] of the same compound?
A: Its IC50 is greater than 50 µg/mL.

Q: With `COc1ccc(CCNS(=O)(=O)c2ccc(-n3cc(-c4ccccc4)nn3)cc2)cc1OC` as the compound, how does the pIC50 (MOLT-3) read?
A: The pIC50 was 4.21.

Q: And the pIC50 (A549)?
A: The pIC50 was 4.74.

Q: And the pIC50 (HepG2)?
A: Its pIC50 is 4.62.

Q: What about the IC50 [1] of the same compound?
A: Its IC50 is greater than 50 µg/mL.

Q: With `COc1cccc2c1C(=O)c1c(O)c3c(c(O)c1C2=O)C[C@@](O)(C(=O)CO)C[C@@H]3O[C@H]1C[C@H](N)[C@H](O)[C@H](C)O1` [DOXORUBICIN] as the compound, how does the pIC50 (A549) read?
A: Its pIC50 is 6.36.

Q: What about the pIC50 (HepG2) of the same compound?
A: Its pIC50 is 6.10.

Q: What about the pIC50 [1] of the same compound?
A: Its pIC50 is 6.08.

Q: With `COc1ccc(CCNS(=O)(=O)c2ccc(N)cc2)cc1OC` as the compound, how does the pIC50 (MOLT-3) read?
A: The pIC50 was 3.98.

Q: What about the IC50 (A549) of the same compound?
A: The IC50 was greater than 50 µg/mL.

Q: And the IC50 (HepG2)?
A: Its IC50 is greater than 50 µg/mL.

Q: And the IC50 [1]?
A: Its IC50 is greater than 50 µg/mL.

Q: Which results are given for `COc1ccc(CCNS(=O)(=O)c2ccc(-n3cc(COc4ccc([N+](=O)[O-])cc4)nn3)cc2)cc1OC`?
A: pIC50 (MOLT-3): 5.00; IC50 (A549): > 50 µg/mL; IC50 (HepG2): > 50 µg/mL; IC50 [1]: > 50 µg/mL

Q: Which IC50 (MOLT-3) does the source give for `O=S(=O)(NCCc1ccccc1)c1ccc(-n2cc(COc3cccc4ccccc34)nn2)cc1` here?
A: The IC50 was greater than 50 µg/mL.

Q: And the IC50 (A549)?
A: Its IC50 is greater than 50 µg/mL.

Q: And the IC50 (HepG2)?
A: The IC50 was greater than 50 µg/mL.

Q: What about the IC50 [1] of the same compound?
A: Its IC50 is greater than 50 µg/mL.

Q: Which results are given for `O=S(=O)(NCCc1ccccc1)c1ccc(-n2cc(COc3ccc4ccccc4c3)nn2)cc1`?
A: pIC50 (MOLT-3): 4.13; IC50 (A549): > 50 µg/mL; pIC50 (HepG2): 4.55; IC50 [1]: > 50 µg/mL

Q: Which results are given for `COc1ccc(CCNS(=O)(=O)c2ccc(-n3cc(COc4ccc(C=O)cc4)nn3)cc2)cc1OC`?
A: pIC50 (MOLT-3): 4.76; pIC50 (A549): 4.55; IC50 (HepG2): > 50 µg/mL; IC50 [1]: > 50 µg/mL

Q: What does the source list for `O=c1ccc2ccc(OCc3cn(-c4ccc(S(=O)(=O)NCCc5ccccc5)cc4)nn3)cc2o1`?
A: pIC50 (MOLT-3): 4.05; pIC50 (A549): 4.71; pIC50 (HepG2): 4.91; pIC50 [1]: 4.79

Q: What does the source list for `O=[N+]([O-])c1ccc(OCc2cn(-c3ccc(S(=O)(=O)NCCc4ccccc4)cc3)nn2)cc1`?
A: pIC50 (MOLT-3): 4.21; IC50 (A549): > 50 µg/mL; IC50 (HepG2): > 50 µg/mL; IC50 [1]: > 50 µg/mL

Q: Which IC50 (MOLT-3) does the source give for `Cc1ccc(OCc2cn(-c3ccc(S(=O)(=O)NCCc4ccccc4)cc3)nn2)cc1` here?
A: Its IC50 is greater than 50 µg/mL.

Q: And the IC50 (A549)?
A: The IC50 was greater than 50 µg/mL.

Q: And the pIC50 (HepG2)?
A: Its pIC50 is 4.09.

Q: And the IC50 [1]?
A: Its IC50 is greater than 50 µg/mL.

Q: With `Nc1ccc(S(=O)(=O)NCCc2ccccc2)cc1` as the compound, how does the pIC50 (MOLT-3) read?
A: Its pIC50 is 3.78.

Q: What about the IC50 (A549) of the same compound?
A: Its IC50 is greater than 50 µg/mL.

Q: And the IC50 (HepG2)?
A: The IC50 was greater than 50 µg/mL.

Q: What about the IC50 [1] of the same compound?
A: Its IC50 is greater than 50 µg/mL.

Q: What does the source list for `COc1ccc(CCNS(=O)(=O)c2ccc(N=[N+]=[N-])cc2)cc1OC`?
A: pIC50 (MOLT-3): 4.31; IC50 (A549): > 50 µg/mL; pIC50 (HepG2): 3.91; IC50 [1]: > 50 µg/mL

Q: With `O=Cc1ccc(OCc2cn(-c3ccc(S(=O)(=O)NCCc4ccccc4)cc3)nn2)cc1` as the compound, how does the pIC50 (MOLT-3) read?
A: The pIC50 was 4.49.

Q: What about the IC50 (A549) of the same compound?
A: Its IC50 is greater than 50 µg/mL.

Q: And the pIC50 (HepG2)?
A: Its pIC50 is 4.00.

Q: And the pIC50 [1]?
A: Its pIC50 is 4.06.

Q: With `[N-]=[N+]=Nc1ccc(S(=O)(=O)NCCc2ccccc2)cc1` as the compound, how does the pIC50 (MOLT-3) read?
A: The pIC50 was 4.22.

Q: What about the pIC50 (A549) of the same compound?
A: The pIC50 was 3.86.

Q: And the pIC50 (HepG2)?
A: The pIC50 was 4.03.

Q: What about the IC50 [1] of the same compound?
A: Its IC50 is greater than 50 µg/mL.

Q: Which IC50 (MOLT-3) does the source give for `O=S(=O)(NCCc1ccccc1)c1ccc(-n2cc(COc3ccccc3)nn2)cc1` here?
A: Its IC50 is greater than 50 µg/mL.

Q: And the IC50 (A549)?
A: Its IC50 is greater than 50 µg/mL.

Q: What about the pIC50 (HepG2) of the same compound?
A: Its pIC50 is 4.24.

Q: What about the IC50 [1] of the same compound?
A: Its IC50 is greater than 50 µg/mL.

Q: With `COc1cc([C@@H]2c3cc4c(cc3[C@@H](O[C@@H]3O[C@@H]5CO[C@@H](C)O[C@H]5[C@H](O)[C@H]3O)[C@H]3COC(=O)[C@H]23)OCO4)cc(OC)c1O` [ETOPOSIDE] as the compound, how does the pIC50 (MOLT-3) read?
A: The pIC50 was 7.29.

Q: And the pIC50 (HepG2)?
A: Its pIC50 is 4.52.

Q: With `COc1cc(C=O)ccc1OCc1cn(-c2ccc(S(=O)(=O)NCCc3ccccc3)cc2)nn1` as the compound, how does the pIC50 (MOLT-3) read?
A: Its pIC50 is 5.04.

Q: What about the pIC50 (A549) of the same compound?
A: Its pIC50 is 4.10.

Q: What about the pIC50 (HepG2) of the same compound?
A: The pIC50 was 4.24.

Q: And the IC50 [1]?
A: Its IC50 is greater than 50 µg/mL.

Q: With `Cc1ccccc1OCc1cn(-c2ccc(S(=O)(=O)NCCc3ccccc3)cc2)nn1` as the compound, how does the pIC50 (MOLT-3) read?
A: The pIC50 was 4.47.

Q: And the IC50 (A549)?
A: The IC50 was greater than 50 µg/mL.

Q: And the pIC50 (HepG2)?
A: Its pIC50 is 4.38.

Q: What about the IC50 [1] of the same compound?
A: The IC50 was greater than 50 µg/mL.
